Literature values in PubChem BioAssay AID1259410 (Chemical Carcinogenesis Research Information System (CCRIS), 2018).

Test system: rodent tumor promotion studies, tumor incidence
Test: CCRIS tumor promotion studies

C=C(C)[C@@]12OC3(c4ccccc4)O[C@@H]1[C@@H]1[C@@H]4OC4(CO)[C@@H](O)[C@]4(O)C(=O)C(C)=C[C@H]4[C@@]1(O3)[C@H](C)[C@H]2OC(=O)/C=C/C=C/c1ccccc1 (stereo partly drawn)
outcome (Carcinogen: 7,12-DIMETHYLBENZ[A]ANTHRACENE, 57-97-6, Doses [Carcinogen]: 10 NMOL APPLIED TO BACK ONCE, Doses [Promoter]: 9 NMOL 2/WK FOR 19 WK BEGINNING 1 WK POST CARCINOGEN DOSE (STUDY DURATION: 40 WK), Route [Carcinogen]: DERMAL, Route [Promoter]: DERMAL, Species: MOUSE, Strain/Sex: HRA/SKH/FEMALE): skin: papilloma

CN(C)c1ncnc2nc[nH]c12
outcome (Carcinogen: DIETHYLNITROSAMINE, 55-18-5, 2-ACETYLAMINOFLUORENE, 53-96-3, CARBON TETRACHLORIDE, 56-23-5, Carcinogen: DIETHYLNITROSAMINE, 55-18-5, 2-ACETYLAMINOFLUORENE, 53-96-3, CARBON TETRACHLORIDE, 56-23-5, Doses [Carcinogen]: 200 MG/KG BW ONCE FOLLOWED 2 WK LATER BY 0.03% 2-ACETYLAMINOFLUORENE IN DIET FOR 2 WK PLUS 2 ML/KG CARBON TETRACHLORIDE, Doses [Promoter]: 0, 0.015% IN DIET FOR 21 WK BEGINNING AT END OF INITIATION PHASE (STUDY DURATION: 25 WK), Route [Carcinogen]: INTRAPERITONEAL, ORAL, Route [Carcinogen]: INTRAPERITONEAL, ORAL, Route [Promoter]: ORAL, Species: RAT, Strain/Sex: WISTAR/MALE): liver: hepatocellular carcinoma | outcome (Carcinogen: DIETHYLNITROSAMINE, 55-18-5, Doses [Carcinogen]: 200 MG/KG BW ONCE, Doses [Promoter]: 0, 0.005, 0.02% IN DIET FOR 23 WK BEGINNING 2 WK POST CARCINOGEN TREATMENT (STUDY DURATION: 25 WK), Doses [Promoter]: 0, 0.005, 0.02% IN DIET FOR 23 WK BEGINNING 2 WK POST CARCINOGEN TREATMENT (STUDY DURATION: 25 WK), Route [Carcinogen]: INTRAPERITONEAL, Route [Promoter]: ORAL, Species: RAT, Strain/Sex: WISTAR/MALE): liver: hepatocellular carcinoma

CC(CCC(=O)NCCS(=O)(=O)O)[C@H]1CC[C@H]2[C@@H]3CC[C@@H]4C[C@H](O)CC[C@]4(C)[C@H]3C[C@H](O)[C@]12C (stereo partly drawn)
outcome (Doses [Carcinogen]: IR, Route [Carcinogen]: RECTAL, Route [Promoter]: RECTAL, Species: RAT, Strain/Sex: MALE,FEMALE): colon

Cn1c(=O)c2c(ncn2C)n(C)c1=O
outcome (Carcinogen: N-NITROSOBIS(2-OXOPROPYL)AMINE, 60599-38-4, Doses [Carcinogen]: 10 MG/KG 1/WK FOR 3 WK, Doses [Promoter]: 0, 2000 PPM IN DRINKING WATER BEGINNING POST CARCINOGEN TREATMENT AND CONTINUING FOR 37 WK (STUDY DURATION: 40 WK), Route [Carcinogen]: SUBCUTANEOUS, Route [Promoter]: ORAL, Species: HAMSTER, Strain/Sex: HAMSTER/FEMALE): pancreas: adenocarcinoma

C=CC(N)=O
outcome (Carcinogen: METHYLNITROSOUREA [684-93-5], Doses [Carcinogen]: 50 MG/KG BW ONCE, Doses [Promoter]: 0, 20, 40 PPM IN DRINKING WATER AFTER CARCINOGEN ADMINISTRATION (STUDY DURATION: 30 WK), Doses [Promoter]: 0, 20, 40 PPM IN DRINKING WATER AFTER CARCINOGEN ADMINISTRATION (STUDY DURATION: 30 WK), Route [Carcinogen]: IP INJECTION, Route [Promoter]: DRINKING WATER, Species: RAT, Strain/Sex: SPRAGUE-DAWLEY/FEMALE (20/GROUP)): mammary gland: adenocarcinoma (significant increase in tumor incidence at 40 ppm

Oc1c(Cl)c(Cl)c(Cl)c(Cl)c1Cl
outcome (Carcinogen: DIETHYLNITROSAMINE [55-18-5], Doses [Carcinogen]: 20 PPM IN DRINKING WATER FOR 13 WEEKS (STUDY DURATION: 42 WK), Doses [Promoter]: 300 PPM IN DIET FOR 25 WK BEGINNING 4 WK POST LAST CARCINOGEN DOSE (STUDY DURATION: 42 WK), Route [Carcinogen]: ORAL, Route [Promoter]: ORAL, Species: MOUSE, Strain/Sex: B6C3F1/MALE): liver: adenoma or carcinoma | outcome (Carcinogen: DIETHYLNITROSAMINE [55-18-5], Doses [Carcinogen]: 20 PPM IN DRINKING WATER FOR 13 WEEKS (STUDY DURATION: 42 WK), Doses [Promoter]: 600 PPM IN DIET FOR 25 WK BEGINNING 4 WK POST LAST CARCINOGEN DOSE (STUDY DURATION: 42 WK), Route [Carcinogen]: ORAL, Route [Promoter]: ORAL, Species: MOUSE, Strain/Sex: B6C3F1/MALE): liver: adenoma or carcinoma
